Source: patent US8853215B2, “Derivatives of N-acyl-N′-phenylpiperazine useful (inter alia) for the prophylaxis or treatment of diabetes” (Takeda Pharmaceutical Company Limited, priority 2009, dated 2014)

What was measured:
[1] = molecular target: human RBP4 (Homo sapiens (Human), UniProt P02753); experiment: Binding assay by Retinol-RBP4-TTR ELISA; settings: for inhibition at 10 µM: at 10 μM compound, read-out: human RBP4 binding inhibitory activity(% at 10 μM); for IC50: retinol 50 nM, His-tagged human RBP4, biotinylated human TTR, read-out: human RBP4 binding inhibitory activity (IC50 nM)
Method: The action of the compound of the present invention to inhibit binding of RBP4 and retinol and TTR was evaluated using the Retinol-RBP4-TTR ELISA system shown below.
1F: Binding Assay by Retinol-RBP4-TTR ELISA
This ELISA system detects a complex of RBP4 and TTR based on a retinol-dependent binding of RBP4 to TTR.
His-tagged human RBP4 used was prepared in the above-mentioned 1C.
Biotinylate human TTR used was prepared in the above-mentioned 1E.
Streptavidin (20 μl) (10 μg/ml Streptavidin type II (Wako Pure Chemical Industries, Ltd.), 10 mM Tris-HCl (pH 7.5), 10 mM NaCl) was added to a 384 well black plate (Nunc MaxiSorp, Thermo Fisher Scientific Inc.), and the plate was subjected to centrifugation (1000 rpm, 1 min) and coated overnight at 4° C. The plate was washed twice with PBST (PBS, 0.05% Tween 20, 100 μl/well) and blocked with 25% Block Ace (Snow Brand Milk Products Co., Ltd., PBS, 100 μl/well). The plate was subjected to centrifugation (1000 rpm, 1 min) and incubated at room temperature for 4 hr or overnight at 4° C. The plate was washed twice with PBST (PBS, 0.05% Tween 20, 100 μl/well), and biotinylate human TTR (stock solution concentration 1.0 mg/ml) diluted 750-fold with PBST was added at 20 μl/well. The plate was subjected to centrifugation (1000 rpm, 1 min) and stood still at room temperature for 1.5 hr or overnight at 4° C. The plate was washed 3 times with PBST (100 μl/well), and His-tagged human RBP4 (stock solution concentration 0.96 mg/ml) diluted 4000-fold with a reaction buffer (50 mM Tris-HCl, 150 mM NaCl, 0.005% Tween 20, 1 mM DTT, 0.1% BSA) was added at 10 μl/well. The dilution series (8 doses from 10 mM, 200-fold concentration) of the compound was prepared with DMSO, and 1 μl of each was added to a reaction buffer (200 μl) containing retinol (50 nM) (Sigma-Aldrich Co.). A reaction buffer (200 μl) containing retinol and added with DMSO was used as a positive control, and reaction buffer (200 μl) free of retinol and added with DMSO was used as a negative control. Mixed solutions of retinol and the compound were added to the plate at 15 μl/well. The plate was stirred in a platemixer subjected to centrifugation (1000 rpm, 1 min) and reacted at room temperature for 2 hr. A 35% Block Ace solution diluted with the reaction buffer was added at 10 μl/well, centrifuged (1000 rpm, 1 min) and reacted at room temperature for 30 min. The plate was washed 3 times with PBST (100 μl/well) and SuperSignal ELISA Femto Maximum Sensitivity Substrate reagent (PIERCE, Thermo Fisher Scientific Inc.) was added at 30 μl/well, and the luminescence was measured by a platereader (Wallac).
The binding inhibitory activity of the compound was determined by 100×(positive control value-test compound value)/(positive control value-negative control value). The binding activity (IC50) was calculated from the binding inhibitory rate at each compound concentration using a graph drawing software, GraphPad Prism (GraphPad Software Inc.).

[2] = molecular target: RBP4 (Mus musculus (Mouse), UniProt Q00724); experiment: Single administration test in mice, plasma RBP4 by ELISA; format: in vivo; settings: male C57BL/6J or ICR mice, 50 mg/kg oral single dose, mean±SD; for RBP4 (% of initial/Control) 0 hr: 0 hr (just before the administration); for RBP4 (% of initial/Control) 4 hr: 4 hr after administration; for RBP4 (% of initial/Control) 7 hr: 7 hr after administration; for RBP4 (% of initial/Control) 24 hr: 24 hr after administration
Method: The action of the compounds of the present invention to reduce plasma RBP4 level was evaluated using the animal model shown below.
Male C57BL/6J and ICR mice were purchased from Charles River (Japan) and maintained on a normal diet (CE2, CLAE Japan, Inc.) and tap water. Animals were housed in a temperature-controlled room adjusted to a 12-hour light/12-hour dark cycle beginning at 7:00 and 19:00, respectively. All procedures were conducted according to the experimental animal care use committee of Takeda Pharmaceutical Company.
Male 6-12-week-old C57BL/6J or ICR mice were housed individually and fed CE2 for 4-6 days. After acclimatization, mice were divided into groups based on their body weight. Compounds were suspended in 0.5% (w/v) methylcellulose in water and given orally to mice at a dose of 50 mg/10 mL/kg of body weight (three to five mice per group). Blood samples were obtained from orbital vein with sodium heparin as an anticoagulant at time 0 hr (just before the administration), 4 hr, 7 hr, and 24 hr after the administration, followed by plasma separation by centrifugation. Plasma RBP4 levels were measured by enzyme-linked immunosorbent assay described in the following section.
Plasma samples were analyzed in duplicate for RBP4 by an enzyme-linked immunosorbent assay. Mouse recombinant RBP4 (Takeda Pharmaceutical Company) was used as standards, and the assay range was 0.313-20 ng/ml. Samples were diluted 10,000-fold with phosphate-buffered saline (PBS) (Sigma) containing 10% (w/v) BlockAce (Dainippon Sumitomo Pharma Co., Ltd). Rabbit anti-RBP4 polyclonal antibody (100 μL/well of 50 μg/mL, Hokudo Co, Ltd) was incubated in a 96-well plate (Nalge Nunc International K.K.) for overnight at 4° C. Subsequently, the plates were washed with PBS-T (Wako Pure Chemical Industries, Ltd.) and blocked with PBS containing 25% BlockAce for 1 hr at room temperature. After another washing with PBS-T, samples and standards were applied to the well, and the plates were incubated for 2 hr at room temperature. After a washing the wells, peroxidase-labeled (Dojindo Laboratories) anti-RBP4 (100 μL/well) was added to the wells, and then the plates were incubated for 1 hr at room temperature. After a final washing with PBS-T, substrate solution 3,3,5,5-tetramethylbenzidine (Sigma) was added to the wells, and the plates were placed in the dark for 5-20 min at room temperature. The reaction was stopped with 0.5 M sulphuric acid and the optical density was measured with a spectrophotometer at 450 nm. The changes in plasma RBP4 levels were expressed as % of initial/Control. All data are presented as mean±SD.

Structure (SMILES) | inhibition at 10 µM [1] [%] | RBP4 (% of initial/Control) 0 hr [2] | RBP4 (% of initial/Control) 4 hr [2] | RBP4 (% of initial/Control) 7 hr [2] | RBP4 (% of initial/Control) 24 hr [2] | IC50 [1] [nM]
CC(C)(C)c1ccccc1N1CCN(C(=O)C(=O)N2CCC(C(=O)O)C2)CC1 (stereo not shown) [Example 191, 1-{[4-(2-tert-Butylphenyl)piperazin-1-yl](oxo)acetyl}pyrrolidine-3-carboxylic acid] | 100 | 100.0 ± 8.0 % of initial/Control | 65.0 ± 2.2 % of initial/Control | 61.2 ± 2.3 % of initial/Control | 127.6 ± 40.9 % of initial/Control | –
Cc1ccc(N2CCN(C(=O)C(=O)O)CC2)c(C(C)(C)C)c1 [Example 82, [4-(2-tert-Butyl-4-methylphenyl)piperazin-1-yl](oxo)acetic acid] | 99 | 100.0 ± 12.5 % of initial/Control | 54.6 ± 4.1 % of initial/Control | 74.2 ± 15.5 % of initial/Control | 101.5 ± 9.7 % of initial/Control | –
CC(C)(C)c1ccccc1N1CCN(C(=O)c2c[nH]cn2)CC1 [Example 3, 1-(2-tert-Butylphenyl)-4-(1H-imidazol-4-ylcarbonyl)piperazine] | – | – | – | – | – | 3.8
CC(C)(C)c1ccccc1N1CCN(C(=O)c2ccc(C(=O)O)cc2)CC1 [Example 34, 4-{[4-(2-tert-Butylphenyl)piperazin-1-yl]carbonyl}benzoic acid] | – | – | – | – | – | 480
CC(C)(C)c1ccccc1N1CCN(C(=O)C2(C(=O)O)CC2)CC1 [Example 71, 1-{[4-(2-tert-Butylphenyl)piperazin-1-yl]carbonyl}cyclopropanecarboxylic acid] | 100 | 100.0 ± 17.1 % of initial/Control | 51.2 ± 1.0 % of initial/Control | 56.7 ± 2.4 % of initial/Control | 120.9 ± 9.0 % of initial/Control | 150
CC(C)(C)c1ccccc1N1CCN(C(=O)CCC(=O)O)CC1 [Example 53, 4-(4-(2-tert-Butylphenyl)piperazin-1-yl)-4-oxobutanoic acid] | 100 | 100.0 ± 29.7 % of initial/Control | 39.9 ± 3.4 % of initial/Control | 30.2 ± 1.3 % of initial/Control | 93.6 ± 15.1 % of initial/Control | –
CC(C)(C)c1ccccc1N1CCN(C(=O)c2ccc(-c3noc(=O)[nH]3)cc2)CC1 [Example 19, 3-(4-{[4-(2-tert-Butylphenyl)piperazin-1-yl]carbonyl}phenyl)-1,2,4-oxadiazol-5(4H)-one] | – | – | – | – | – | 49
CC(C)(C)c1ccccc1N1CCN(C(=O)Nc2ccccc2)CC1 [Example 56, 4-(2-tert-Butylphenyl)-N-phenylpiperazine-1-carboxamide] | – | – | – | – | – | 58
CC(C)(C)c1ccccc1N1CCN(C(=O)c2ccc(OCC3CCNCC3)cc2)CC1 [Example 41, 1-(2-tert-Butylphenyl)-4-{[4-(piperidin-4-ylmethoxy)phenyl]carbonyl}piperazine] | – | – | – | – | – | 250
CC(C)(C)c1ccccc1N1CCN(C(=O)C(O)CO)CC1 (stereo not shown) [Example 110, 3-[4-(2-tert-Butylphenyl)piperazin-1-yl]-3-oxopropane-1,2-diol] | – | – | – | – | – | 330

The next lines start with the values.

inhibition at 10 µM [1] [%] | RBP4 (% of initial/Control) 0 hr [2] | RBP4 (% of initial/Control) 4 hr [2] | RBP4 (% of initial/Control) 7 hr [2] | RBP4 (% of initial/Control) 24 hr [2] | IC50 [1] [nM] | Structure (SMILES)
100 | 100.0 ± 13.6 % of initial/Control | 36.6 ± 1.0 % of initial/Control | 38.1 ± 1.3 % of initial/Control | 80.3 ± 18.4 % of initial/Control | – | CC(C)(C)c1ccccc1N1CCN(C(=O)C(=O)NCC(=O)O)CC1 [Example 87, N-{[4-(2-tert-Butylphenyl)piperazin-1-yl](oxo)acetyl}glycine]
100 | 100.0 ± 23.0 % of initial/Control | 63.0 ± 2.0 % of initial/Control | 61.0 ± 2.2 % of initial/Control | 93.0 ± 9.6 % of initial/Control | – | CC(C)(C)c1cc(Cl)ccc1N1CCN(C(=O)C(=O)O)CC1 [Example 180, [4-(2-tert-Butyl-4-chlorophenyl)piperazin-1-yl](oxo)acetic acid]
100 | 100.0 ± 12.8 % of initial/Control | 70.1 ± 1.8 % of initial/Control | 67.0 ± 2.6 % of initial/Control | 123.3 ± 14.2 % of initial/Control | – | CC(C)(C)c1ccccc1N1CCN(C(=O)c2ncoc2CCC(=O)O)CC1 [Example 178, 3-(4-{[4-(2-tert-Butylphenyl)piperazin-1-yl]carbonyl}-1,3-oxazol-5-yl)propanoic acid]
– | – | – | – | – | 34 | CC(C)(C)c1ccccc1N1CCN(C(=O)CC2NC(=O)NC2=O)CC1 (stereo not shown) [Example 90, 5-{2-[4-(2-tert-Butylphenyl)piperazin-1-yl]-2-oxoethyl}imidazolidine-2,4-dione]
100 | 100.0 ± 22.3 % of initial/Control | 72.2 ± 3.6 % of initial/Control | 67.0 ± 1.8 % of initial/Control | 91.3 ± 15.9 % of initial/Control | – | CC(C)(C)c1ccccc1N1CCN(C(=O)C(=O)Nc2ccc(CCC(=O)O)cc2)CC1 [Example 197, 3-[4-({[4-(2-tert-Butylphenyl)piperazin-1-yl](oxo)acetyl}amino)phenyl]propanoic acid]
– | – | – | – | – | 95 | CC(C)(C)c1ccccc1N1CCN(C(=O)C23CC4CC(CC(C(=O)O)(C4)C2)C3)CC1 [Example 1, 3-{[4-(2-tert-Butylphenyl)piperazin-1-yl]carbonyl}adamantane-1-carboxylic acid]
